From patent US11673866B2, “Estrogen receptor beta ligands for the prevention and treatment of multiple sclerosis (MS) and other demyelinating, inflammatory and neurodegenerative diseases” (The Board of Trustees of the University of Illinois, priority 2018, dated 2023)

Legend:
[1] = target: T1, ERα (Homo sapiens, UniProt P03372); assay: Relative binding affinity (RBA) to estrogen receptor alpha, radiometric measurement; details: relative value to 100% for E2 by radiometric measurement
T1 sequence (P03372 1-595): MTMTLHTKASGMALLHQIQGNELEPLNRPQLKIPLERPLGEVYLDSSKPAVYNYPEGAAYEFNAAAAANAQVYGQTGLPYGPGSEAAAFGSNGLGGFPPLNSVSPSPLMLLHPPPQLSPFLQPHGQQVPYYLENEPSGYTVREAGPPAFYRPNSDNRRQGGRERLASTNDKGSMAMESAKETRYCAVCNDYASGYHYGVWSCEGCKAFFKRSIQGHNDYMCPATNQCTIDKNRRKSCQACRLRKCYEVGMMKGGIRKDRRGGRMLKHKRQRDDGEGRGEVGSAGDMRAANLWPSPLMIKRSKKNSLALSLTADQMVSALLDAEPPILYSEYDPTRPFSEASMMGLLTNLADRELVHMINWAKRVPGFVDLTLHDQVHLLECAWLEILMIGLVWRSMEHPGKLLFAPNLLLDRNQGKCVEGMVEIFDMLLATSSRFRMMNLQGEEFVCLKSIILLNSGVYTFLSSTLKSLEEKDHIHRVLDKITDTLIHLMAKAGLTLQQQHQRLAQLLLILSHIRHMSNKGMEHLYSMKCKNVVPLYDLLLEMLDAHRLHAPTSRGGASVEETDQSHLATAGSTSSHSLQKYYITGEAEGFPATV

[2] = target: ERβ (Homo sapiens, UniProt Q92731); assay: Relative binding affinity (RBA) to estrogen receptor beta, radiometric measurement; details: for β/α Ratio: ratio of RBA ERβ to RBA ERα; for RBA ERβ: relative value to 100% for E2 by radiometric measurement
ERβ, sequence (Q92731 whole entry, species assumed): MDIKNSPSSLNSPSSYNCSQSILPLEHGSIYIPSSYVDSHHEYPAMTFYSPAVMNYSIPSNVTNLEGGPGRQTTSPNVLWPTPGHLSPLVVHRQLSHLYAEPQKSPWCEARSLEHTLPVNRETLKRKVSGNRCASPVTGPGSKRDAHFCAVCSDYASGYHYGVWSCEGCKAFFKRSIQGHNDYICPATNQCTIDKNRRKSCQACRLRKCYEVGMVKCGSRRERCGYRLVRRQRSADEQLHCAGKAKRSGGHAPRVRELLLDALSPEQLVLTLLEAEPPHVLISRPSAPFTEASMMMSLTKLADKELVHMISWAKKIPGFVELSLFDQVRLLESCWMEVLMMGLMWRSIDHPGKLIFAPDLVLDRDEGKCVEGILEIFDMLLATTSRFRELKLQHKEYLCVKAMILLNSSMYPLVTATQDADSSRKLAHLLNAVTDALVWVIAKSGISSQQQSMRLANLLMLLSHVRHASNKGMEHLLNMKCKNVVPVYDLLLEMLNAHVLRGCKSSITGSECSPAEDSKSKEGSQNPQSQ

[3] = system: primary oligodendrocyte and oligodendrocyte precursor cells (OL/OPCs); assay: Primary OPC culture differentiation (MBP immunostaining, DAPI); format: cell-based, mouse; set-up: key to %MBP+/DAPI: *: The level of production of myelin basic protein (MBP); ---: reduction of MBP; details: level of production of myelin basic protein in primary OPC/OL cultures
Description: Primary OPC Cultures: Primary OPCs, isolated from postnatal day P1 C57BL/6 male and female mouse cortices as described previously, were treated with 10 nM ligands in differentiating medium for 3 days (Tiwari-Woodruff et al., 2001; Tiwari-Woodruff et al., 2006). Primary OPC were cultured into 8-well chamber slides (three wells per condition, 2.5×10^5 cells/well) for three days to attach and […] in differentiating media (consisting of DMEM-F12 with triiodothyronine- and thyroxine-containing Sato as well as penicillin, streptomycin, insulin, N-acetyl-L-cysteine, forskolin, ciliary neurotrophic factor, neurotrophin-3, and platelet-derived growth factor receptor α (Tiwari-Woodruff et al., 2001)). A positive control (IndCl), a negative control (Vehicle consisting of the media+EtOH mixture used to dissolve IndCl), and a normal control (differentiating media alone) were used for comparison. At the end of the treatment period, cells were fixed, stained by immunocytochemistry (primary antibody polyclonal chicken myelin basic protein (MBP, Millipore AB9348), shown in green and co-stained with nuclear stain—DAPI shown in blue), and imaged with an Olympus BX61 confocal microscope (Olympus America Inc., Center Valley, Pa.) at 10× magnification (3 images per well). Cells were counted using the ImageJ multipoint tool, and counts were then divided by the image area (mm^2). Average cell density for each condition was then divided by the normal condition cell density. Analysis of OL differentiation consisted of counting the number of MBP+ cells and process extensions that were longer than the respective cell-body diameter and tracking the number of highly branched MBP+ cells (with three or more processes) (Monnerie et al., 2017). Statistics were performed using GraphPad Prism 6 Software (La Jolla, Calif.). One-way ANOVA with Tukey's posthoc test for multiple comparisons was used to generate p-values, and data are presented as mean SEM (with α≤0.05).
Primary OPC cultures were used as a convenient cell-based assay to characterize the proliferation and/or differentiation effects of the new IndCl analogues and to select those most suitable for more extensive studies to be done in comparison with the parental ligand, IndCl. 48 hours after plating OPCs, one of seven IndCl analogues (FIG. 1A) was added to differentiating media at a concentration of 10 nM (De Angelis et al., 2005; Saijo et al., 2011). OPCs were allowed to differentiate for 3 days in the presence of IndCl or analogues, at which point they were fixed, immunostained for OPC/OL markers, and quantified. […] The total number of cells in culture was not altered by any treatment (FIGS. 1B and 1D).

Compound	RBA ERα [1] [%]	β/α Ratio [2]	RBA ERβ [2] [%]	%MBP+/DAPI [3]
OCc1c2cc(O)ccc2nn1-c1ccc(O)cc1 [Ind-CH2OH, 3-(hydroxymethyl)-2-(4-hydroxyphenyl)-2H-indazol-5-ol]	0.04	35.8	1.43	
Oc1ccc(-c2c3cc(O)ccc3nn2-c2ccc(O)cc2)cc1 [Ind-Ph-p-OH, 4,4′-(5-hydroxy-2H-indazole-2,3-diyl)diphenol]	0.08	7.8	0.63	
Oc1ccc(-n2nc3ccc(O)cc3c2C2SCCS2)cc1 [Ind-Thiolane, 3-(1,3-dithiolan-2-yl)-2-(4-hydroxyphenyl)-2H-indazol-5-ol]	0.03	10.3	0.31	
C=CCc1c2cc(O)ccc2nn1-c1ccc(O)cc1Br [Ind-allyl-o-Br, 3-allyl-2-(2-bromo-4-hydroxyphenyl)-2H-indazol-5-ol]	0.34	2.5	0.86	
C=Cc1c2cc(O)ccc2nn1-c1ccc(O)cc1Br [Ind-vinyl-o-Br, 2-(2-bromo-4-hydroxyphenyl)-3-vinyl-2H-indazol-5-ol]	0.54	14.9	8.04	
Oc1ccc(-n2nc3ccc(O)cc3c2Br)c(Br)c1 [IndBr-o-Br, 3-bromo-2-(2-bromo-4-hydroxyphenyl)-2H-indazol-5-ol]	1.40	4.2	5.84	*
Oc1ccc(-n2nc3ccc(O)cc3c2Br)c(Cl)c1 [IndBr-o-Cl, 3-bromo-2-(2-chloro-4-hydroxyphenyl)-2H-indazol-5-ol]	0.81	19.9	16.12	
Oc1ccc(-n2nc3ccc(O)cc3c2Br)c(I)c1 [IndBr-o-I, 3-bromo-2-(4-hydroxy-2-iodophenyl)-2H-indazol-5-ol]	0.49	12.8	6.28	
Oc1ccc2nn(-c3ccc(O)c(F)c3)c(Cl)c2c1 [IndCl-m-F, 3-chloro-2-(3-fluoro-4-hydroxyphenyl)-2H-indazol-5-ol]	0.14	75.7	10.5	
Cc1cc(-n2nc3ccc(O)cc3c2Cl)ccc1O [IndCl-m-Me, 3-chloro-2-(4-hydroxy-3-methylphenyl)-2H-indazol-5-ol]	0.13	5.8	0.74	
Oc1ccc(-n2nc3ccc(O)cc3c2Cl)c(Br)c1 [IndCl-o-Br, 2-(2-bromo-4-hydroxyphenyl)-3-chloro-2H-indazol-5-ol]	0.47	17.9	8.31	*
Oc1ccc(-n2nc3ccc(O)cc3c2Cl)c(C(F)(F)F)c1 [IndCl-o-CF3, 3-chloro-2-(4-hydroxy-2-(trifluoromethyl)phenyl)-2H-indazol-5-ol]	2.84	3.7	10.39	
OCc1cc(O)ccc1-n1nc2ccc(O)cc2c1Cl [IndCl-o-CH2OH, 3-chloro-2-(4-hydroxy-2-(hydroxymethyl)phenyl)-2H-indazol-5-ol]	0.13	18.0	2.34	
N#Cc1cc(O)ccc1-n1nc2ccc(O)cc2c1Cl [IndCl-o-CN, 2-(3-chloro-5-hydroxy-2H-indazol-2-yl)-5-hydroxybenzonitrile]	0.05	15.7	0.77	---
Oc1cc(Cl)c(-n2nc3ccc(O)c(Cl)c3c2Cl)c(Cl)c1 [IndCl-o-Cl2-4-Cl, 3,4-dichloro-2-(2,6-dichloro-4-hydroxyphenyl)-2H-indazol-5-ol]	0.11	21.1	2.3	
Oc1ccc(-n2nc3ccc(O)cc3c2Cl)c(F)c1 [IndCl-o-F, 3-chloro-2-(2-fluoro-4-hydroxyphenyl)-2H-indazol-5-ol]	0.19	52.4	9.79	

Continued, in another order:

RBA ERα [1] [%]	β/α Ratio [2]	RBA ERβ [2] [%]	Compound	%MBP+/DAPI [3]
0.18	13.0	2.34	Oc1ccc(-n2nc3ccc(O)cc3c2Cl)c(C2SCCS2)c1 [IndCl-o-Thiolane, 2-(2-(1,3-dithiolan-2-yl)-4-hydroxyphenyl)-3-chloro-2H-indazol-5-ol]	
0.27	4.0	1.09	Oc1ccc(-n2nc3ccc(O)cc3c2F)c(Cl)c1 [IndF-o-Cl, 2-(2-chloro-4-hydroxyphenyl)-3-fluoro-2H-indazol-5-ol]	
0.27	2.3	0.61	Oc1ccc(-n2nc3ccc(O)cc3c2F)c(I)c1 [IndF-o-I, 3-fluoro-2-(4-hydroxy-2-iodophenyl)-2H-indazol-5-ol]	
0.088	9.3	0.82	Oc1cc(Cl)c(-n2cc3cc(O)ccc3n2)c(Cl)c1 [IndH-o-Cl2, 2-(2,6-dichloro-4-hydroxyphenyl)-2H-indazol-5-ol]	
0.03	2.0	0.06	Oc1cc(F)c(-n2cc3cc(O)ccc3n2)c(F)c1 [IndH-o-F2, 2-(2,6-difluoro-4-hydroxyphenyl)-2H-indazol-5-ol]	
1.25	5.3	6.64	Oc1ccc(-n2nc3ccc(O)cc3c2I)c(Br)c1 [IndI-o-Br, 2-(2-bromo-4-hydroxyphenyl)-3-iodo-2H-indazol-5-ol]	
0.47	10.5	4.93	Oc1ccc(-n2nc3ccc(O)cc3c2I)c(Cl)c1 [IndI-o-Cl, 2-(2-chloro-4-hydroxyphenyl)-3-iodo-2H-indazol-5-ol]	
0.37	6.7	2.5	Oc1ccc(-n2nc3ccc(O)cc3c2I)c(I)c1 [IndI-o-I, 2-(4-hydroxy-2-iodophenyl)-3-iodo-2H-indazol-5-ol]	
1.38	7.0	9.64	Cc1cc(O)ccc1-n1nc2ccc(O)cc2c1I [IndI-o-Me, 2-(4-hydroxy-2-methylphenyl)-3-iodo-2H-indazol-5-ol]	
